Data published in the CheMixHub viscosity set.

Experiment: xn = mol fraction of the nth substance listed

CCOC(=O)OCC + CC(C)OC(C)C
viscosity [mPa·s], 100 kPa
Conditions	x1 = 0.0986	x1 = 0.1988	x1 = 0.3012	x1 = 0.4026	x1 = 0.4998	x1 = 0.5976	x1 = 0.7008	x1 = 0.8014	x1 = 0.9009
303.15 K	0.325	0.351	0.379	0.409	0.442	0.481	0.528	0.58	0.636
308.15 K	0.309	0.332	0.359	0.387	0.419	0.455	0.497	0.546	0.599
313.15 K	0.296	0.317	0.341	0.369	0.398	0.432	0.472	0.516	0.566

CC(C)[C@@H]1CC[C@@H](C)C[C@H]1O + CC(O)CCO
Conditions	viscosity [mPa·s]
298.15 K, 101.33 kPa, x1 = 0.5	140.3

CC(C)[C@@H]1CC[C@@H](C)C[C@H]1O + CC(O)CO
Conditions	viscosity [mPa·s]
298.15 K, 101.33 kPa, x1 = 0.5	81.72

CCCCCCCCCCO + CCC(C)=O
viscosity [mPa·s], 100 kPa
Conditions	x2 = 0.0798	x2 = 0.1601	x2 = 0.2392	x2 = 0.3498	x2 = 0.4401	x2 = 0.5602	x2 = 0.6496	x2 = 0.7411	x2 = 0.8502	x2 = 0.9406
293.15 K	11.4	8.94	7.3	5.65	4.57	3.24	2.34	1.68	1.01	0.6
303.15 K	7.99	6.34	4.92	3.65	2.75	2	1.52	1.11	0.74	0.49
313.15 K	5.31	4.24	3.39	2.42	1.88	1.39	1.1	0.82	0.58	0.4
323.15 K	3.95	3.23	2.64	1.93	1.52	1.13	0.87	0.66	0.48	0.36

Cc1ccccc1C + CCC(C)O
308.15 K, 101 kPa
Conditions	viscosity [mPa·s]
x2 = 0.0648	0.655
x2 = 0.1275	0.663
x2 = 0.2083	0.681
x2 = 0.3048	0.679
x2 = 0.3787	0.715
x2 = 0.4323	0.742
x2 = 0.5015	0.796
x2 = 0.6005	0.879
x2 = 0.6944	1.048
x2 = 0.7978	1.265
x2 = 0.9485	1.751

OCCOCCOCCO + CCC(C)O
viscosity [mPa·s], 100 kPa
Conditions	x1 = 0.0808	x1 = 0.1599	x1 = 0.2399	x1 = 0.35	x1 = 0.44	x1 = 0.5558	x1 = 0.6502	x1 = 0.7399	x1 = 0.8502	x1 = 0.94
293.15 K	5.57	7.33	9.21	12.23	15.18	19.7	24.16	29.07	36.18	43.08
298.15 K	4.23	5.59	7	9.31	11.53	14.96	18.37	22.16	27.73	33.06
303.15 K	3.68	4.84	6.08	7.92	9.7	12.38	15.03	17.95	22.19	26.32
308.15 K	3.18	4.17	5.17	6.64	7.98	10.05	12.09	14.34	17.76	21
313.15 K	2.58	3.33	4.17	5.42	6.58	8.32	10.01	11.91	14.65	17.26
318.15 K	2.26	3.02	3.79	4.92	5.92	7.37	8.75	10.23	12.32	14.31
323.15 K	1.94	2.54	3.17	4.12	4.97	6.23	7.4	8.65	10.4	11.99

CC(C)[C@@H]1CC[C@@H](C)C[C@H]1O + CCC(O)CO
Conditions	viscosity [mPa·s]
298.15 K, 101.33 kPa, x1 = 0.5	88.2
